Experimental data taken from PubChem BioAssay (NCI).
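Test compounds were applied to cells in 96-well plates for 48 hours at 5 doses. GI50 marks 50% less growth. TGI denotes the concentration required for complete inhibition of growth.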

Columns and labels:
Assay in all cases: NCI anticancer screen, dose series, 48 h
NCI-H460 lung = system: NCI-H460 lung
SF-295 CNS = system: SF-295 CNS
CAKI-1 renal = system: CAKI-1 renal
SK-MEL-28 melanoma = system: SK-MEL-28 melanoma
SNB-75 CNS = system: SNB-75 CNS
SR leukemia = system: SR leukemia
TK-10 renal = system: TK-10 renal
OVCAR-4 ovarian = system: OVCAR-4 ovarian
A549 NSCLC = system: A549 NSCLC
ACHN renal = system: ACHN renal
OVCAR-5 ovarian = system: OVCAR-5 ovarian
HOP-92 NSCLC = system: HOP-92 NSCLC
IGROV1 ovarian = system: IGROV1 ovarian
SK-MEL-2 melanoma = system: SK-MEL-2 melanoma
SF-539 CNS = system: SF-539 CNS
786-0 renal = system: 786-0 renal
NCI-H226 lung = system: NCI-H226 lung
NCI-H522 lung = system: NCI-H522 lung
MCF7 breast = system: MCF7 breast
CCRF-CEM leukemia = system: CCRF-CEM leukemia
HS 578T breast = system: HS 578T breast
SNB-19 CNS = system: SNB-19 CNS
RPMI-8226 leukemia = system: RPMI-8226 leukemia
K-562 leukemia = system: K-562 leukemia
HT29 colon = system: HT29 colon
SW-620 colon = system: SW-620 colon
NCI/ADR-RES ovarian = system: NCI/ADR-RES ovarian
SK-MEL-5 melanoma = system: SK-MEL-5 melanoma
DU-145 prostate = system: DU-145 prostate
OVCAR-8 ovarian = system: OVCAR-8 ovarian
HCT-15 colon = system: HCT-15 colon
KM12 colon = system: KM12 colon
SF-268 CNS = system: SF-268 CNS
M14 melanoma = system: M14 melanoma
U251 CNS = system: U251 CNS
HOP-62 NSCLC = system: HOP-62 NSCLC
MOLT-4 leukemia = system: MOLT-4 leukemia
LOX IMVI melanoma = system: LOX IMVI melanoma
SK-OV-3 ovarian = system: SK-OV-3 ovarian
MDA-MB-231 breast = system: MDA-MB-231 breast
A498 renal = system: A498 renal
PC-3 prostate = system: PC-3 prostate
OVCAR-3 ovarian = system: OVCAR-3 ovarian
HL-60(TB) leukemia = system: HL-60(TB) leukemia
MALME-3M melanoma = system: MALME-3M melanoma
NCI-H23 lung = system: NCI-H23 lung
RXF 393 renal = system: RXF 393 renal
T-47D breast = system: T-47D breast
SN12C renal = system: SN12C renal
HCC-2998 colon = system: HCC-2998 colon
UACC-62 melanoma = system: UACC-62 melanoma
MDA-MB-435 = system: MDA-MB-435
COLO 205 colon = system: COLO 205 colon
HCT-116 colon = system: HCT-116 colon
BT-549 breast = system: BT-549 breast
UACC-257 melanoma = system: UACC-257 melanoma
UO-31 renal = system: UO-31 renal
EKVX NSCLC = system: EKVX NSCLC

CN1CCN(C(=O)[C@@]2(C)CC[C@]3(C)CC[C@]4(C)C(=CC[C@@H]5[C@@]6(C)CCC(=O)NC(C)(C)[C@@H]6CC[C@]54C)[C@@H]3C2)CC1
GI50 (NCI-H460 lung): 1.69 µM
TGI (NCI-H460 lung): 3.3 µM
GI50 (SF-295 CNS): 1.53 µM
TGI (SF-295 CNS): 3.07 µM
GI50 (CAKI-1 renal): 2.36 µM
TGI (CAKI-1 renal): 6.48 µM
GI50 (SK-MEL-28 melanoma): 1.56 µM
TGI (SK-MEL-28 melanoma): 2.97 µM
GI50 (SNB-75 CNS): 1.57 µM
TGI (SNB-75 CNS): 3.34 µM
GI50 (SR leukemia): 0.391 µM
TGI (SR leukemia): 4.47 µM
GI50 (TK-10 renal): 1.8 µM
TGI (TK-10 renal): 3.42 µM
GI50 (OVCAR-4 ovarian): 2.94 µM
TGI (OVCAR-4 ovarian): 13 µM
GI50 (A549 NSCLC): 2.02 µM
TGI (A549 NSCLC): 5.28 µM
GI50 (ACHN renal): 1.99 µM
TGI (ACHN renal): 4.11 µM
GI50 (OVCAR-5 ovarian): 1.65 µM
TGI (OVCAR-5 ovarian): 3.17 µM
GI50 (HOP-92 NSCLC): 1.05 µM
TGI (HOP-92 NSCLC): 3.89 µM
GI50 (IGROV1 ovarian): 1.77 µM
TGI (IGROV1 ovarian): 3.77 µM
GI50 (SK-MEL-2 melanoma): 1.94 µM
TGI (SK-MEL-2 melanoma): 3.84 µM
GI50 (SF-539 CNS): 1.56 µM
TGI (SF-539 CNS): 2.9 µM
GI50 (786-0 renal): 1.58 µM
TGI (786-0 renal): 2.98 µM
GI50 (NCI-H226 lung): 4.14 µM
TGI (NCI-H226 lung): 21.4 µM
GI50 (NCI-H522 lung): 1.78 µM
TGI (NCI-H522 lung): 3.75 µM
GI50 (MCF7 breast): 1.83 µM
TGI (MCF7 breast): 4.17 µM
GI50 (CCRF-CEM leukemia): 1.58 µM
TGI (CCRF-CEM leukemia): 4.43 µM
GI50 (HS 578T breast): 2.06 µM
TGI (HS 578T breast): 6.78 µM
GI50 (SNB-19 CNS): 1.81 µM
TGI (SNB-19 CNS): 3.56 µM
GI50 (RPMI-8226 leukemia): 1.43 µM
TGI (RPMI-8226 leukemia): 3.74 µM
GI50 (K-562 leukemia): 1.07 µM
TGI (K-562 leukemia): 3.02 µM
GI50 (HT29 colon): 1.5 µM
TGI (HT29 colon): 3.35 µM
GI50 (SW-620 colon): 1.87 µM
TGI (SW-620 colon): 3.93 µM
GI50 (NCI/ADR-RES ovarian): 3 µM
TGI (NCI/ADR-RES ovarian): 11.9 µM
GI50 (SK-MEL-5 melanoma): 1.64 µM
TGI (SK-MEL-5 melanoma): 3.06 µM
GI50 (DU-145 prostate): 3.44 µM
TGI (DU-145 prostate): 12.1 µM
GI50 (OVCAR-8 ovarian): 3.94 µM
TGI (OVCAR-8 ovarian): 14.8 µM
GI50 (HCT-15 colon): 1.2 µM
TGI (HCT-15 colon): 2.96 µM
GI50 (KM12 colon): 1.56 µM
TGI (KM12 colon): 3.13 µM
GI50 (SF-268 CNS): 3.04 µM
TGI (SF-268 CNS): 14.4 µM
GI50 (M14 melanoma): 1.69 µM
TGI (M14 melanoma): 3.38 µM
GI50 (U251 CNS): 1.38 µM
TGI (U251 CNS): 2.82 µM
GI50 (HOP-62 NSCLC): 1.56 µM
TGI (HOP-62 NSCLC): 3.13 µM
GI50 (MOLT-4 leukemia): 1.52 µM
TGI (MOLT-4 leukemia): 3.66 µM
GI50 (LOX IMVI melanoma): 1.46 µM
TGI (LOX IMVI melanoma): 2.84 µM
GI50 (SK-OV-3 ovarian): 1.84 µM
TGI (SK-OV-3 ovarian): 3.87 µM
GI50 (MDA-MB-231 breast): 1.7 µM
TGI (MDA-MB-231 breast): 3.47 µM
GI50 (A498 renal): 2.68 µM
TGI (A498 renal): 12.1 µM
GI50 (PC-3 prostate): 0.813 µM
TGI (PC-3 prostate): 2.42 µM
GI50 (OVCAR-3 ovarian): 2.01 µM
TGI (OVCAR-3 ovarian): 4.7 µM
GI50 (HL-60(TB) leukemia): 1.87 µM
TGI (HL-60(TB) leukemia): 3.87 µM
GI50 (MALME-3M melanoma): 1.45 µM
TGI (MALME-3M melanoma): 2.82 µM
GI50 (NCI-H23 lung): 2.48 µM
TGI (NCI-H23 lung): 8.91 µM
GI50 (RXF 393 renal): 1.06 µM
TGI (RXF 393 renal): 2.52 µM
GI50 (T-47D breast): 1.62 µM
TGI (T-47D breast): 4.21 µM
GI50 (SN12C renal): 1.46 µM
TGI (SN12C renal): 3.3 µM
GI50 (HCC-2998 colon): 1.51 µM
TGI (HCC-2998 colon): 3.04 µM
GI50 (UACC-62 melanoma): 1.55 µM
TGI (UACC-62 melanoma): 3.03 µM
GI50 (MDA-MB-435): 1.62 µM
TGI (MDA-MB-435): 3.3 µM
GI50 (COLO 205 colon): 1.54 µM
TGI (COLO 205 colon): 3.18 µM
GI50 (HCT-116 colon): 1.13 µM
TGI (HCT-116 colon): 2.45 µM
GI50 (BT-549 breast): 1.58 µM
TGI (BT-549 breast): 3.28 µM
GI50 (UACC-257 melanoma): 2.1 µM
TGI (UACC-257 melanoma): 4.72 µM
GI50 (UO-31 renal): 1.19 µM
TGI (UO-31 renal): 2.51 µM
GI50 (EKVX NSCLC): 2.74 µM
TGI (EKVX NSCLC): 12.8 µM
